In patent US5106407A, “Iodones and methods for antimicrobial use” (priority 1989, dated 1992):

System: mixture of bacterial organisms listed in Table 1
Test: latex preservation test
Protocol: The latex was a vinylidene chloride-butadiene copolymer with a pH of 6.1.
Fifty gram aliquots of the latex were placed in sterile bottles and one hundred gram aliquots of the diluted cutting oil were placed in 250-mL Erlenmeyer flasks. An appropriate amount of a fresh 1 percent stock solution of (2-nitrophenyl)-iodonium 2,2-dimethyl-4,6-dioxo-1,3-dioxan-5-ylide in acetone-water was added to achieve the desired final concentrations (see Tables 5 and 6). A small portion of the respective latex or cutting oil preparation was then streaked onto Tryptic Soy Agar (TSA) petri plates using sterile cotton swabs to determine whether the preparations were sterile. If the particular preparation was sterile, it was then inoculated with an appropriate volume (0.1 mL for the latex and 0.2 mL for the cutting oil) of a mixture of equal aliquots of 24 hr cultures of each of the bacterial organisms listed in Table 1 (not the fungi and yeast). The latex samples were incubated at 30° C. and the cutting oils were agitated on a rotary shaker at room temperature. After 24 hr, all samples were again streaked on TSA. All plates were then incubated at 30° C. for 48 hr and then rated 1 to 10 according to the growth rating system described in Table 4.
The results from this first set of streaks after inoculation are listed in the columns labeled streak number 1 in Tables 5 and 6. Samples with a rating of 3 or less from streak number 1 were reinoculated as described for the first inoculation above. Samples with a rating of 4 or greater were not reinoculated. After another 24 hr all samples were again restreaked on TSA agar. The results from these second streaks were labeled streak number 2 in Tables 5 and 6. Samples were reinoculated and restreaked in this fashion for a maximum of 10 streaks. Any samples with two streaks in a row with a ten rating were not restreaked again.

CC1(C)OC(=O)[C-]([I+]c2ccccc2[N+](=O)[O-])C(=O)O1 [Example 19, (2-Nitrophenyl)-iodonium 2,2-dimethyl-4,6-dioxo-1,3-dioxan-5-ylide]
growth rating (25 ppm, streak 1): 1 (0) | growth rating (25 ppm, streak 2): 9 | growth rating (25 ppm, streak 3): 1 (0) | growth rating (25 ppm, streak 4): 1 (0) | growth rating (25 ppm, streak 5): 1 (0) | growth rating (25 ppm, streak 6): 1 (0) | growth rating (25 ppm, streak 7): 1 (0) | growth rating (25 ppm, streak 8): 1 (0) | growth rating (50 ppm, streak 1): 1 (0) | growth rating (50 ppm, streak 3): 1 (0) | growth rating (50 ppm, streak 4): 1 (0) | growth rating (50 ppm, streak 5): 1 (0) | growth rating (50 ppm, streak 6): 1 (0) | growth rating (50 ppm, streak 7): 1 (0) | growth rating (50 ppm, streak 8): 1 (0) | growth rating (50 ppm, streak 9): 1 (0) | growth rating (50 ppm, streak 10): 1 (0) | growth rating (100 ppm, streak 1): 1 (0) | growth rating (100 ppm, streak 3): 1 (0) | growth rating (100 ppm, streak 4): 1 (0) | growth rating (100 ppm, streak 5): 1 (0) | growth rating (100 ppm, streak 6): 1 (0) | growth rating (100 ppm, streak 7): 1 (0) | growth rating (100 ppm, streak 8): 1 (0) | growth rating (100 ppm, streak 9): 1 (0) | growth rating (100 ppm, streak 10): 1 (0) | growth rating (250 ppm, streak 1): 1 (0) | growth rating (250 ppm, streak 2): 1 (0) | growth rating (250 ppm, streak 3): 1 (0) | growth rating (250 ppm, streak 4): 1 (0) | growth rating (250 ppm, streak 5): 1 (0) | growth rating (250 ppm, streak 6): 1 (0) | growth rating (250 ppm, streak 7): 1 (0) | growth rating (250 ppm, streak 8): 1 (0) | growth rating (250 ppm, streak 9): 1 (0) | growth rating (250 ppm, streak 10): 1 (0) | growth rating (500 ppm, streak 1): 1 (0) | growth rating (500 ppm, streak 2): 1 (0) | growth rating (500 ppm, streak 3): 1 (0) | growth rating (500 ppm, streak 4): 1 (0) | growth rating (500 ppm, streak 5): 1 (0) | growth rating (500 ppm, streak 6): 1 (0) | growth rating (500 ppm, streak 7): 1 (0) | growth rating (500 ppm, streak 8): 1 (0) | growth rating (500 ppm, streak 9): 1 (0) | growth rating (500 ppm, streak 10): 1 (0) | growth rating (1000 ppm, streak 1): 1 (0) | growth rating (1000 ppm, streak 2): 1 (0) | growth rating (1000 ppm, streak 3): 1 (0) | growth rating (1000 ppm, streak 4): 1 (0) | growth rating (1000 ppm, streak 5): 1 (0) | growth rating (1000 ppm, streak 6): 1 (0) | growth rating (1000 ppm, streak 7): 1 (0) | growth rating (1000 ppm, streak 8): 1 (0) | growth rating (1000 ppm, streak 9): 1 (0) | growth rating (1000 ppm, streak 10): 1 (0)
